Patent US8569274B2, “Progesterone antagonist and selective progesterone modulator in the treatment of excessive uterine bleeding” (Preglem S.A., priority 2007, dated 2013)

How the values were obtained:
Assay type in all cases: in vivo
uterine bleeding [1] = assay: Case: person with stage III Hodgkin disease, prevention of uterine bleeding during chemotherapy and irradiation; conditions: 10 mg/day orally, started before chemotherapy (MOPP) and irradiation
From the text: A person is consulting for pneumonia. They report a recent history of night sweats and weight loss. […] The diagnosis is a stage III of Hodgkin disease. Their condition indicates chemotherapy (MOPP) and extended irradiation. The main risk of the proposed therapy is bone marrow suppression. This is life-threatening by exposing the patient to severe infection and septicemia, but it is also associated with severe thrombopenia and diffuse bleeding including uterine bleeding. In order to prevent uterine bleeding, before initiating specific treatment for their Hodgkin disease, they are orally administered 10 mg/day of CDB-2914. Following initiation of chemotherapy and irradiation, severe bone marrow suppression is recorded and the patient is admitted in aseptic unit. […] CBD2914 administration is maintained as long as coagulation parameters are not normalized.

uterine bleeding [2] = assay: Case: person with Acute Lymphotic Leukemia, thrombocytopenia and uterine bleeding, oral treatment
Procedure: A post-pubertal person is consulting for fever, infections, uterine bleeding, petechia and dyspnea. Blood test identifies anemia (Hb 7.8 g/dL), normal leucocyte count (WBC 8657 cells/μL) and thrombocytopenia (platelets: 13.476 cells/mm^3). […] A diagnosis of Acute Lymphotic Leukemia is confirmed. The patient undergoes blood and platelet transfusion to correct for anemia and coagulation disorder. On the same day, they start taking orally 10 mg/day of CDB-2914. […] On that day, Hb is 9.9 g/dL; WBC 6345 cells/μL; and platelet count is 42 000 cells/mm^3. They continue taking orally 10 mg/day of CDB2914 for controlling abnormal uterine bleeding. […] After 3 months, they achieve remission, Hb is 13.1 g/dL; leucocyte count is normal, platelet count is 176 000 cells/mm^3. Bone marrow biopsy confirmed normalization.

uterine bleeding [3] = assay: Case: person on anticoagulant therapy with menorrhagia, oral treatment
Procedure: A moderate smoker with a BMI at 32 is treated with anticoagulant therapy for an episode of pulmonary embolism resulting from a deep venous thrombosis in a leg. Despite effort to adapt their anticoagulation therapy, their menstruations are heavy (menorrhagia) and last for up to two weeks. Their Hb is at 9.2 gr/dL. […] Their thrombo-embolic condition precludes any therapy with oestrogens or progestins. Given, the absence of negative metabolic and pro-thrombotic effect of SPRM, they are orally administered 25 mg/day of Proellex® (CDB-4124). […] Their Hb progressively returned to normal (>12 gd/dL).

Row | Structure (SMILES) | uterine bleeding despite severe thrombopenia (uterine bleeding [1]) | uterine bleeding during continued treatment (uterine bleeding [2]; 10 mg/day orally, 3 months, several episodes of thrombopenia and chemotherapy cycles, except for a few spotting) | time following initiation of treatment until uterine bleeding is stopped (uterine bleeding [2]; 10 mg/day orally, blood and platelet transfusion on the same day) [days] | menstrual bleeding after treatment is stopped (uterine bleeding [2]; after 3 months, remission) | uterine bleeding after start of treatment (uterine bleeding [3]; 25 mg/day orally) | uterine bleeding during the 12 weeks of anticoagulation therapy (uterine bleeding [3]; 25 mg/day orally) | Hb (uterine bleeding [3]; 25 mg/day orally, 9.2 gr/dL before treatment, progressively returned to normal) [gd/dL] | menstruations after treatment is stopped (uterine bleeding [3]; after anticoagulation therapy is stopped)
1 | CC(=O)O[C@]1(C(C)=O)CC[C@H]2[C@@H]3CCC4=CC(=O)CCC4=C3[C@@H](c3ccc(N(C)C)cc3)C[C@@]21C [CDB-2914] | remains in amenorrhea | remains in amenorrhea | 5 | regular, normal menstrual bleeding are restored |  |  |  | 
2 | COCC(=O)[C@@]1(OC(C)=O)CC[C@H]2[C@@H]3CCC4=CC(=O)CCC4=C3[C@@H](c3ccc(N(C)C)cc3)C[C@@]21C [Proellex, 17[alpha]-acetoxy-21-methoxy-11β-[4-N,N-dimethylaminophenyl]-19-norpregna-4,9-diene-3,20-dione] |  |  |  |  | stopped after a few days | remain amenorrheic | > 12 | resumed normal menstruations
